According to patent US20060110407A1 (priority 2001, published 2006):

Experiments:
[1] = test system: camelpox, cowpox, monkeypox, and vaccinia viruses; conditions: cited from earlier work
Vaccinia strain IHD-J = test system: Vaccinia strain IHD-J; parameters: species or system Balb/c mice; conditions: mouse, in vivo

| Compound | effectiveness in treating Orthopoxvirus infections [1] | Mean (number of pocks per tail) (Vaccinia strain IHD-J) | Mean difference compared to negative control (Saline) (Vaccinia strain IHD-J) |
| --- | --- | --- | --- |
| Nc1nc2c(ncn2CCC(CO)CO)c(=O)[nH]1 [penciclovir] | effective | – | – |
| CC(=O)OCC(CCn1cnc2cnc(N)nc21)COC(C)=O [famciclovir] | effective | – | – |
| Nc1ccn(C[C@@H](CO)OCP(=O)(O)O)c(=O)n1 [Cidofovir ™, Cidofovir] | effective | 24.2 | −17.7 |
| NC(=O)c1ncn([C@@H]2O[C@H](CO)[C@@H](O)[C@H]2O)n1 [ribavirin] | effective | – | – |
| COc1c(C)c2c(c(O)c1C/C=C(\C)CCC(=O)O)C(=O)OC2 [mycophenolic acid] | effective | – | – |
